# Source: the NIST ThermoML archive (doi:10.1016/j.fluid.2005.03.016)
# “And” between values parts separate entries of the source, which are not always exact repeats. Equal entries are not always repeated. ± gives the expanded uncertainty stated by the source.
# Conditions: Liquid, Closed cell (Static) method
vapor or sublimation pressure (313.08 K),vapor or sublimation pressure (313.1 K) [kPa],vapor or sublimation pressure (313.07 K) [kPa],SMILES,other results
13.77 ± 0.41 kPa,,,CC(C)(C)O [2-methylpropan-2-ol],
530.05 ± 2.4 kPa and 529.95 ± 2.4 kPa,529.95 ± 2.4,,CC(C)C [2-methylpropane],vapor or sublimation pressure (313.06 K): 529.65 ± 2.3 kPa; vapor or sublimation pressure (313.12 K): 530.75 ± 2.3 kPa
,5.97 ± 0.4,,CCC(C)O (centres undefined) [butan-2-ol],
,,17.77 ± 0.41,CCO [ethanol],
,,35.27 ± 0.43,CO [methanol],
,,,CC(C)O [propan-2-ol],vapor or sublimation pressure (313.11 K): 13.77 ± 0.41 kPa
